“And” between values parts separate entries of the source, which are not always exact repeats. Equal entries are not always repeated. Inconclusive results and toxic doses are left out.

For this test, the system named is BDF1 mice, P388 leukemia ip, median survival T/C. The experiment in a line: NCI In Vivo Anticancer Drug Screen. Data for tumor model P388 Leukemia (intraperitoneal) in B6D2F1 (BDF1) mice. The settings on record: endpoint: median survival time, higher = longer survival. The procedure: The antitumor activity of compounds was measured in mice bearing transplantable tumors. Survival or tumor size were measured and the results are expressed as the measurement made in the treated group (T) divided by the measurement made in the vehicle treated control group (C). The tumor model used in this assay is P388 Leukemia (intraperitoneal) in B6D2F1 (BDF1) mice

[1] abbreviates: dose: 100.0 mg/kg/injection, schedule: Q01DX009 (ip), vehicle: saline with Tween-80.
Where [2] appears, read: dose: 200.0 mg/kg/injection, schedule: Q01DX009 (ip), vehicle: saline with Tween-80.
Setting [3] is: dose: 100.0 mg/kg/injection, schedule: Q04DX003 (ip), vehicle: saline with Tween-80.
Where [4] appears, read: dose: 200.0 mg/kg/injection, schedule: Q04DX003 (ip), vehicle: saline with Tween-80.
The mark [5] stands for this setting: dose: 25.0 mg/kg/injection, schedule: Q04DX003 (ip), vehicle: Klucel (hydroxypropylcellulose) (HPC).
[6] abbreviates: dose: 50.0 mg/kg/injection, schedule: Q04DX003 (ip), vehicle: Klucel (hydroxypropylcellulose) (HPC).
Setting [7] is: dose: 100.0 mg/kg/injection, schedule: Q04DX003 (ip), vehicle: Klucel (hydroxypropylcellulose) (HPC).
The mark [8] stands for this setting: dose: 200.0 mg/kg/injection, schedule: Q04DX003 (ip), vehicle: Klucel (hydroxypropylcellulose) (HPC).
Where [9] appears, read: dose: 25.0 mg/kg/injection, schedule: Q01DX009 (ip), vehicle: saline.
The mark [10] stands for this setting: dose: 100.0 mg/kg/injection, schedule: Q01DX001 (ip), vehicle: other.
The mark [11] stands for this setting: dose: 3.13 mg/kg/injection, schedule: Q01DX009 (ip), vehicle: Klucel (hydroxypropylcellulose) (HPC).
Setting [12] is: dose: 25.0 mg/kg/injection, schedule: Q01DX009 (ip), vehicle: Klucel (hydroxypropylcellulose) (HPC).
Where [13] appears, read: dose: 50.0 mg/kg/injection, schedule: Q01DX009 (ip), vehicle: Klucel (hydroxypropylcellulose) (HPC).
The mark [14] stands for this setting: dose: 100.0 mg/kg/injection, schedule: Q01DX009 (ip), vehicle: Klucel (hydroxypropylcellulose) (HPC).
[15] abbreviates: dose: 400.0 mg/kg/injection, schedule: Q04DX003 (ip), vehicle: Klucel (hydroxypropylcellulose) (HPC).
The mark [16] stands for this setting: dose: 400.0 mg/kg/injection, schedule: Q04DX003 (ip), vehicle: saline with Tween-80.

Take `Cc1cc(O)c(O)c(C(C)(C)CC(C)(C)C)c1`: the T/C is 95 % of control (dose: 100.0 mg/kg/injection, schedule: Q04DX003 (ip), vehicle: saline + alcohol); 104 % of control (dose: 200.0 mg/kg/injection, schedule: Q04DX003 (ip), vehicle: saline + alcohol); 100 % of control (dose: 400.0 mg/kg/injection, schedule: Q04DX003 (ip), vehicle: saline + alcohol).

In the case of `CCN(CC)CCC1(C(N)=O)Cc2ccccc2N(CC)c2ccccc21` (centres undefined), the T/C is 100 % of control under setting [1] and 100 % of control under setting [2].

For `CCCCNC(C)(C)C(SC(C)=O)c1ccc(Cl)cc1` (centres undefined), the T/C by setting is: under setting [3], 108 % of control; under setting [4], 112 % of control.

Take `CC(C)=NNS(=O)(=O)c1ccc(C)cc1`: the T/C was 106 % of control under setting [5], 106 % of control under setting [6], 111 % of control under setting [7] and 111 % of control under setting [8].

As to `CC1=CCS(=O)(=O)C1`, the T/C (dose: 25.0 mg/kg/injection, schedule: Q01DX001 (ip), vehicle: other) was 95 % of control; the T/C under setting [9] was 113 % of control; the T/C (dose: 25.0 mg/kg/injection, schedule: Q04DX003 (ip), vehicle: saline) is 91 % of control; the T/C (dose: 50.0 mg/kg/injection, schedule: Q01DX001 (ip), vehicle: other) was 86 % of control; the T/C (dose: 50.0 mg/kg/injection, schedule: Q01DX009 (ip), vehicle: saline) is 100 % of control; the T/C (dose: 50.0 mg/kg/injection, schedule: Q04DX003 (ip), vehicle: saline) is 87 % of control. The T/C under setting [10] was 95 % of control; the T/C (dose: 100.0 mg/kg/injection, schedule: Q01DX009 (ip), vehicle: saline) is 109 % of control; the T/C (dose: 100.0 mg/kg/injection, schedule: Q04DX003 (ip), vehicle: saline) is 91 % of control.

Turning to `COc1cc(/C=N/Nc2ccc([N+](=O)[O-])cc2)cc(OC)c1OC`, the T/C by setting is: (dose: 50.0 mg/kg/injection, schedule: Q04DX003 (ip), vehicle: saline with Tween-80) 100 % of control; under setting [1], 95 % of control; under setting [3], 95 % of control; under setting [2], 95 % of control; under setting [4], 105 % of control; (dose: 400.0 mg/kg/injection, schedule: Q01DX009 (ip), vehicle: saline with Tween-80) 100 % of control.

As to `O=CC(OC(=O)c1ccccc1)C(OC(=O)c1ccccc1)C(COC(c1ccccc1)(c1ccccc1)c1ccccc1)OC(=O)c1ccccc1` (centres undefined), the T/C by setting is: (dose: 25.0 mg/kg/injection, schedule: Q01DX009 (ip), vehicle: saline with Tween-80) 110 % of control; (dose: 50.0 mg/kg/injection, schedule: Q01DX009 (ip), vehicle: saline with Tween-80) 110 % of control; under setting [1], 120 % of control; under setting [2], 100 % of control and 108 % of control.

In the case of `O=C1NC(c2cccc(OCc3ccccc3)c2)Nc2ccccc21` (centres undefined), the T/C under setting [11] is 97 % of control; the T/C under setting [12] is 94 % of control and 110 % of control; the T/C under setting [13] is 108 % of control; the T/C (dose: 62.5 mg/kg/injection, schedule: Q01DX009 (ip), vehicle: Klucel (hydroxypropylcellulose) (HPC)) was 150 % of control; the T/C under setting [14] was 120 % of control; the T/C (dose: 250.0 mg/kg/injection, schedule: Q01DX009 (ip), vehicle: Klucel (hydroxypropylcellulose) (HPC)) was 166 % of control.

On to `O=S(c1ccccc1)C1Cc2ccccc2C1Cl` (centres undefined), for which the T/C is 107 % of control (dose: 50.0 mg/kg/injection, schedule: Q01DX009 (ip), vehicle: other); 107 % of control (dose: 100.0 mg/kg/injection, schedule: Q01DX009 (ip), vehicle: other); 115 % of control (dose: 200.0 mg/kg/injection, schedule: Q01DX009 (ip), vehicle: other).

As for `CNC(=N)c1ccc(NC(=N)c2ccc(NC(=N)c3ccc(NC(=N)c4ccc(C(=N)NC)cc4)cc3)cc2)cc1`, the T/C was 120 % of control (dose: 6.0 mg/kg/injection, schedule: Q01DX009 (ip), vehicle: saline with Tween-80); 166 % of control and 175 % of control (dose: 13.0 mg/kg/injection, schedule: Q01DX009 (ip), vehicle: saline with Tween-80); 100 % of control (dose: 18.0 mg/kg/injection, schedule: Q04DX003 (ip), vehicle: saline with Tween-80); 157 % of control and 165 % of control (dose: 20.0 mg/kg/injection, schedule: Q01DX009 (ip), vehicle: saline with Tween-80); 109 % of control (dose: 20.0 mg/kg/injection, schedule: Q04DX003 (ip), vehicle: saline with Tween-80); 116 % of control (dose: 26.0 mg/kg/injection, schedule: Q04DX003 (ip), vehicle: saline with Tween-80). Moreover, the T/C runs as follows: (dose: 30.0 mg/kg/injection, schedule: Q01DX009 (ip), vehicle: saline with Tween-80) 214 % of control; (dose: 40.0 mg/kg/injection, schedule: Q04DX003 (ip), vehicle: saline with Tween-80) 154 % of control; (dose: 80.0 mg/kg/injection, schedule: Q04DX003 (ip), vehicle: saline with Tween-80) 90 % of control.

`Nc1ccc(C(=O)Nc2ccc(Nc3ccncc3)cc2)cc1`: the T/C under setting [14] was 109 % of control; the T/C under setting [7] was 104 % of control; the T/C (dose: 200.0 mg/kg/injection, schedule: Q01DX009 (ip), vehicle: Klucel (hydroxypropylcellulose) (HPC)) was 118 % of control; the T/C under setting [8] was 104 % of control; the T/C (dose: 400.0 mg/kg/injection, schedule: Q01DX009 (ip), vehicle: Klucel (hydroxypropylcellulose) (HPC)) was 118 % of control; the T/C under setting [15] is 100 % of control.

`c1ccc2c(c1)Sc1ccccc1N2CCCN1CCCC1`: the T/C runs as follows: (dose: 6.25 mg/kg/injection, schedule: Q01DX009 (ip), vehicle: saline) 104 % of control; (dose: 12.5 mg/kg/injection, schedule: Q01DX009 (ip), vehicle: saline) 104 % of control; under setting [9], 122 % of control.

As for `Cc1ncc([N+](=O)[O-])n1CCN=[N+]=[N-]`, the T/C under setting [3] was 104 % of control and the T/C under setting [4] was 123 % of control.

Take `CCCCc1c(C(=O)OCC)oc(C(=O)OCC)c(CCCC)c1=O`: the T/C by setting is: (dose: 12.5 mg/kg/injection, schedule: Q04DX003 (ip), vehicle: Klucel (hydroxypropylcellulose) (HPC)) 99 % of control; under setting [5], 91 % of control; under setting [6], 115 % of control; under setting [7], 91 % of control; under setting [15], 102 % of control.

For the molecule `CC(C)=CCC/C(C)=C/CNc1ncnc2nc[nH]c12`, the T/C reads like this: under setting [3], 100 % of control; under setting [4], 90 % of control; under setting [16], 109 % of control and 111 % of control.

For the molecule `COc1cc(C=Nc2ccc(-c3nc(Cc4ccccc4)sc3C)cc2)ccc1N(CCCl)CCCl`, the T/C under setting [11] is 196 % of control; the T/C (dose: 6.25 mg/kg/injection, schedule: Q01DX009 (ip), vehicle: Klucel (hydroxypropylcellulose) (HPC)) is 206 % of control; the T/C (dose: 12.5 mg/kg/injection, schedule: Q01DX009 (ip), vehicle: Klucel (hydroxypropylcellulose) (HPC)) was 221 % of control; the T/C under setting [12] was 194 % of control and 198 % of control; the T/C under setting [13] is 108 % of control.

In the case of `O=CNc1ccc(C(=O)O)cc1`, the T/C by setting is: under setting [3], 100 % of control; under setting [4], 104 % of control; under setting [16], 91 % of control.

With `O=C(NC1CCCCC1)O/N=C/c1ccccn1`, the T/C is, setting by setting: under setting [10], 87 % of control; (dose: 400.0 mg/kg/injection, schedule: Q01DX001 (ip), vehicle: other) 91 % of control.

As for `CCOC(=O)Sc1ncnc2nc[nH]c12`, the T/C reads like this: under setting [1], 109 % of control; under setting [2], 90 % of control.

The values above are taken from PubChem BioAssay AID328 (DTP/NCI, 2004).
